Source: US5583155A, “6-amino-1,2-benzopyrones useful for treatment of viral diseases” (Octamer, Inc., priority 1994, dated 1996)
Entries after “also recorded” stand apart in the source; their conditions may differ. Read-outs that look alike come from different tables or passages of the source.

Experiments:
[1] = system: RSV; assay: microbe, parasite or virus in culture; type: cell-based, Respiratory Syncytium virus (patient isolate)
[2] = system: Influenza virus; assay: microbe, parasite or virus in culture; type: cell-based, Influenza virus (patient isolate)
[3] = system: HSV-1 strain F; assay: microbe, parasite or virus in culture; type: cell-based, Herpes simplex virus type 1
[4] = system: HIV in AA-2 cells; assay: HIV propagation in AA-2 cells (cytopathogenicity); type: cell-based; settings: for inhibition at 3000 µM: varying HIV dilutions, read-out: HIV growth inhibition in AA-2 cells
Method: Whereas the activation of latent HIV by various DNAs and its prevention by 6-ABP were shown above, the following experiments examine the effects of 6-ABP on the direct propagation of highly virulent HIV strain obtained from NIH in Molt III cells, using cell supernatant as source of virus on AA-2 and MT2 cells in culture. More than 60 tests were performed varying virus titers, time of exposure, and exposure to 6-ABP.
The effect of 1 and 3 mM 6-ABP on the rate of HIV propagation is assayed by cytopathogenicity at a fixed HIV dilution 1:1600.
FIG. 7 illustrates the effect of 3 mM 6-ABP on HIV growth inhibition in AA-2 cells after 3 days and 6 days. The culture was exposed to 3 mM of the drug at varying HIV dilutions. 6-ABP concentration acting for 3 or 6 consecutive days on AA-2 cells is depicted as a function of virus concentration (given as HIV dilution on the abscissa).

[5] = system: HIV in AA-2 cells; assay: HIV replication in AA-2 cells (p 24 ELISA); type: cell-based; settings: 3 mM
Method: The effects of 3 mM 6-ABP on HIV replication in AA-2 cells using the same experimental set-up as for FIG. 7 was followed by the conventional analysis of p 24 formation by automated ELISA tests. The results are shown in FIG. 8, where as in FIG. 7, the influence of varying HIV concentrations infecting HIV dilution, from 1:100 to 1:1600 or p 24 input, as shown in graph, was monitored.

[6] = system: HIV in human lymphoblasts; assay: HIV production in human lymphoblasts (p24 antigen); type: cell-based, HIV (isolates from blood of infected patients)
Method: In FIG. 10, human lymphoblast exposed to 6-ABP for 18 hours. The drug concentrations studied were between 0.01 to 10 mM. HIV production was studied in two time intervals, 6 and 12 days after the drug removal.
(§1) In FIGS. 11A through 11E, normal lymphoblasts stimulated with PHA are infected with HIV and at the same time are submitted to various concentrations from 0-10 mM 6-ABP. After the short exposure of 18 hours, both HIV and 6-ABP are removed, FIGS. 11A, 11C, 11E and the 6-ABP in the same concentrations is readded up to 4 days to cultures shown in FIGS. 11B and 11D. At 4 days, proliferation index measured by ^3 H-thymidine incorporation is determined in FIGS. 11A and 11B. […] In FIGS. 11C and […], the viral synthesis or inhibition is measured by p 24 assay.
The HIV isolates used in these experiments were isolated from the blood of infected patients. After isolation, HIV infection was established in CEM cells, and these infected cells were used to produce a stock of HIV virus that was titered to measure the concentration of tissue culture infective doses (TCID).
6 ABP was dissolved in saline in amount which was further diluted as required, and added to the culture medium containing cells at the indicated concentrations.
Human peripheral blood mononuclear cells from a noninfected, normal individual were stimulated for 2 to 3 days with phytohemagglutinin in tissue culture, washed, aliquoted and cultured overnight with 200 TCID or 50 TCID of HIV and were untreated or treated with 0.01, 0.1, 1.0 or 10.0 mM 6-ABP. An additional control was incubated with 10 mM 6-ABP without presence of HIV. After the overnight incubation, […]. The cells were placed in culture in medium containing IL-2, but in the absence of additional 6-ABP, and monitored at 6 days and 12 days for the production of HIV-p24 core antigen, or for measurements of particulate reverse transcriptase. A decrease in the amount of either of these indicators of HIV indicated an inhibition by 6-ABP in the ability of HIV to replicate in normal human lymphoblasts.
HIV p24 antigen was measured by ELISA, with a cutoff of 5 pgm/ml. Particulate reverse transcriptase was measured by centrifuging down free virus from tissue culture fluids, lysing HIV in a buffer containing detergent, magnesium, H3-labelled dTTP and poly rA.oligo dT primer, incubating for 1 hour, and measuring precipitable radioactivity, expressed as cpm per volume of HIV-containing medium.

[7] = system: human lymphoblasts; assay: Lymphoblast DNA synthesis / viability (3H-thymidine incorporation); type: cell-based
Method: as §1
The viability of lymphoblasts was measured by incubating the cells exposed to IL-2, HIV and to 6-ABP with H3-thymidine for 6 hours on the sixth day of culture and determining the amount of cpm incorporated per 100,000 cells placed in culture.
In order to ascertain that relatively short 18 hours exposure of human lymphoblasts selectively blocks HIV replication and has minimal effects on DNA synthesis of lymphoblasts, the proliferation, p24 and reverse transcriptase experiments were also performed, as shown in FIG. 11.
In panel A (top) DNA synthesis of lymphoblasts is assayed as a function of 6-ABP concentration. In panel A' (lower curve) the decay of HIV replication is simultaneously determined, and in A "panel" reverse transcriptase was assayed. All these are accepted assays for HIV replication.

[8] = system: ADPRT; assay: Binding to ADPRT; settings: enzymes other than ADPRT
[9] = Intracellular metabolism of 6-ABP
[10] = system: HIV (activated by HSV IE-110) in U937 cells; assay: HIV growth activated by HSV IE110 in U937 cells (syncytium-forming assay)
Method: For the purpose of determining the ability of 6-ABP to inhibit HIV growth activation, the duplicate cells cultures were used. In experiments 1 and 2, U937 cells were transfected with HSV IE-110 gene and, CMV IE gene and infected HIV. […] In experiment 3, U937 cells transfected with HSV IE-110 and infected with HIV were treated with 3 mM of 6-ABP.
In all experiments shown in FIG. 3 and 4, the cells were exposed to 3 mM drug for 24 hrs.
DNA transfection was performed with DEAE dextran. Briefly, U937 cells (5×10^6) were exposed for 60 min. at 37° C. to a mixture of DEAE Dextran (1.05 ug/ml) and DNA in STBS buffer (25 mM Tris HCl, having pH 7.5, 137 mM NaCl, 0.5 MgCl2, 0.7 mM CaCl2 and 5 mM KCl and 0.6 mM Na2 HPO4) in 15 ml snap cap 6×35 mm polyethylene dishes from Costar, Cambridge, Mass., at 5×10^6 cells per well. Routinely, transfection mixtures contained 1.0 ug of target supercoiled plasmid and 0.1 ug DNA to equalize nucleic acid concentration effects. Transfected cells were harvested 40 to 44 hr post transfection in CAT harvest buffer (40 mM Tris, having pH 7.4 150 mM NaCl, 1 mM EDTA) and stored at -20° C. until assayed.
In one series of experiments, the effect of HSV IE110 and CMV IE2 gene expression on HIV replication using the syncytium assay formation on MT2 cells that defines HIV growth was examined. The ability of 6-ABP to inhibit HIV growth activation was studied in duplicate cultures. U937 cells were transfected with HSV IE110 CMV IE genes or mock transfected with pBR322 plasmid and duplicate cells were pretreated with HIV. Virus (HIV) growth was assayed at various times thereafter. HIV titers are expressed as syncytia forming units/ml.
Transfection was 24 hours before HIV infection. Sampling was done at days 3, 5, 6, and 8 post infection with HIV. 6-ABP treatment was 24 hours prior to transfection in order to allow intercellular 6-ABP concentration to equilibrate with external drug concentration. The timing chosen and drug dosage relate to drug penetration.

## Nc1ccc2oc(=O)ccc2c1 [6-ABP, 6-amino-1,2-benzopyrone]
[1]; 1 mM 6-ABP, 24 hours before infection
  Virus Titer +6-ABP (RSV): 1 × 10^5 TCID50
[1]; 6-ABP treatment
  effect on RSV growth: no effect
[1]; human respiratory syncytial virus, 1 mM 6-ABP, 24 hours before infection
  inhibition at 1000 µM: 0%
[2]; 1 mM 6-ABP, 24 hours before infection, highest dilution that caused 50% hemagglutination
  Virus Titer +6-ABP (Influenza): 1 × 10^4
[2]; 6-ABP treatment
  effect on Influenza virus growth: no effect
[2]; unidentified influenza virus, read-out: % Inhibition (Influenza)
  inhibition at 1000 µM: 0%
[3]; 1, 5 and 10 mM, zero time vs 4 hours after infection
  effect of time of drug addition, HSV-1 (F): essentially no differences found between the two modes of drug exposure
[3]; HSV growth in HEp-2, Vero and MRC-5 cells
  dependence of inhibitory effect on cell type: not affected by cell type
[3]; Human alphaherpesvirus 1, 1 mM at 0 and 4 hours post infection, respectively, read-out: inhibition of HSV-1 growth
  inhibition at 1000 µM: 60 to 65%
[3]; Human alphaherpesvirus 1, 1 mM, 24 hours before infection, read-out: inhibition of HSV-1 growth
  inhibition at 1000 µM: 50%
[3]; Human alphaherpesvirus 1, 10 mM, 0 and 4 hours post infection, read-out: inhibition of HSV-1 growth
  inhibition at 10000 µM: ~80%
[3]; Human alphaherpesvirus 1, HEp-2, 24 h, 2 mM, 24 hrs preexposure, HEp-2 cells, FIG. 1A, read-out: inhibition of HSV-1 strain F growth
  inhibition at 2000 µM: > 50%
[3]; Human alphaherpesvirus 1, 24 hours pretreatment, HEp-2 cells, read-out: concentration for 50% inhibition of growth, HSV-1 strain F
  IC50: 2000 µM
[4]; 1 mM, HIV dilution 1:1600
  HIV propagation in AA-2 cells: able to suppress the HIV propagation only slightly
[4]; 3 mM, Example 5
  HIV replication, AA-2 cells: complete abrogation of HIV replication
[4]; 3 mM, day 6, HIV dilution 1:1600
  HIV propagation in AA-2 cells: completely eliminates HIV propagation
[4]; Human immunodeficiency virus 1, 72 h, 3 mM, 3 days
  inhibition at 3000 µM: 70 to 100%
[4]; Human immunodeficiency virus 1, 144 h, 3 mM, 6 days
  inhibition at 3000 µM: 25 to 100%
[5]; beyond a virus dilution of 1:1400
  HIV replication: profoundly inhibited HIV replication
[5]; day 4, 1:1400 virus dilution
  p 24 generation: completely suppressed p 24 generation
[6]; 0-10 mM, 18 hours or 4 days exposure, FIGS. 11C and 11D
  viral multiplication, p 24 assay: almost completely inhibited
[6]; 0.1 μM (so in the source), 18 hours exposure, 6 and 12 days
  HIV production in human lymphoblasts: HIV production decreased dramatically
[6]; 0.1 mM, 18 hours exposure, 6 or 12 days past infection
  decrease of HIV (p24 tests): dramatic decrease of HIV
[6]; 18 hr exposure, FIG. 11
  selectivity against HIV replication vs cellular DNA synthesis: great selectivity of 6-ABP against HIV replication
[7]; 4 consecutive days exposure
  viability of lymphoblasts: viability of lymphoblasts was not affected by the drug
[7]; 18 hours exposure, FIG. 11A
  DNA synthesis of lymphoblasts: does not influence genomic DNA synthesis; also recorded: did not effect the DNA synthesis; also recorded: cellular DNA synthesis virtually unaffected
[7]; 4 days exposure, FIG. 11B
  DNA synthesis of lymphoblasts: temporarily also inhibited; also recorded: inhibitory effect on lymphoblast DNA synthesis
[8]
  effect on other enzymes: no other enzymes are activated or inhibited
[9]; liver vs target cells
  reduction-oxidation cycle: high in liver but much lower in target cells
[9]; to 6-nitroso-1,2-benzopyrone
  intracellular oxidation: rapid oxidation at the 6-amino position
[10]; 1 mM
  effect on activation by HSV IE110: virtually abrogates activation by HSV IE110
[10]; 1 mM, day 3
  HIV growth, U937 + HSV IE110 + 6-ABP: 32 SFU/ml
[10]; 1 mM, day 5
  HIV growth, U937 + HSV IE110 + 6-ABP: 64 SFU/ml
[10]; 1 mM, day 6
  HIV growth, U937 + HSV IE110 + 6-ABP: 100 SFU/ml
[10]; 1 mM, day 8
  HIV growth, U937 + HSV IE110 + 6-ABP: 100 SFU/ml
[10]; 3 mM, FIG. 3
  effect on IE-110(HSV)-activated growth of HIV: profoundly depresses IE-110(HSV)-activated growth of HIV
[10]; 3 mM, days 4 to 8, FIG. 3
  HIV growth, U937 + HSV IE-110, reduced to background levels: 250-300 SFU per ml
